# Source: patent US20120149574A1, “Methods and Compositions for Managing Water Quality in a Body of Water” (priority 2010, published 2012)
# How the values were obtained:
# [1] = Comparative pond treatment, multiple applications: turbidity, phosphorus, water quality; settings: five applications, FIGS. 11 and 12
# Protocol: (§1) One pond was treated with a liquid composition prepared as in Example 1 (hereinafter termed “Composition E1”) and the other with copper sulfate pentahydrate. Both ponds were treated with the same concentration of copper on the same days. Five algaecide applications, each approximately one week apart, were conducted on the corresponding pond as a surface spray. The first application was a 1 ppm copper rate, whereas the following applications were all 0.5 ppm copper. All five treatments were completed by the 34th day following the initial treatment (“DAT”), though water sampling continued to evaluate changes in algae growth and water clarity. Representative water samples were periodically collected from each of the ponds at the same durations following treatments. […] As mentioned previously, when used alone, alum is generally applied at such high doses that a buffer is concurrently applied to prevent dramatic changes in water quality that can result in acute toxicity to aquatic organisms.
# algae [2] = test: Comparative pond treatment vs. copper sulfate alone, single application: algae; format: in vivo, green algae (Chlorophyta), cyanobacteria (Cyanophyta)
# Protocol: (§2) Two ponds of similar dimensions (0.1 surface acres, 4 foot average depth) and similar water character, located beside each other, were used in this experiment. Both ponds were treated once (immediately following the initial sampling event) with the same concentration of copper, 1 ppm, and monitored through time. One pond was treated with Composition E1 and the other with copper sulfate pentahydrate. The objectives were 1) to evaluate the change in algae assemblage composition, 2) to measure algaecidal impacts and re-growth of algae, 3) to measure changes in phosphorus and turbidity following treatment.
# [3] = Comparative pond treatment, single application: turbidity and total phosphorus; settings: single application 1 ppm copper
# Protocol: as §2
# algae [4] = test: Comparative pond treatment vs. copper sulfate alone, multiple applications: algae; format: in vivo, green algae (Chlorophyta), cyanobacteria (Cyanophyta)
# Protocol: as §1
smiles,measurement,setting,value
"O.O.O.O.O.O=S(=O)([O-])[O-].[Cu+2] [copper sulfate, copper sulfate pentahydrate]",total phosphorus (TP) and free reactive phosphorus (FRP) concentrations over time,[1],substantially higher than the Composition E1-treated pond
same,algal assemblage following treatment,algae [2]; single application 1 ppm copper (FIGS. 18 and 19),remained dominated by cyanobacteria
same,decrease of treated algae,"algae [2]; single application 1 ppm copper, 7 DAT",78%
same,chlorophyll a,"algae [2]; single application 1 ppm copper, 7 DAT (FIG. 15)",significantly decreased
same,chlorophyll a,"algae [2]; single application 1 ppm copper, 14 DAT (FIG. 15)",significantly higher
same,increase in algal densities,"algae [2]; single application 1 ppm copper, between 7 and 14 DAT",350%
same,total phosphorus,[3]; 7 DAT (FIG. 17),little change
same,total phosphorus,[3]; 14 DAT vs initial (FIG. 17),notable increase from initial levels
same,chlorophyll levels following cessation of the algaecide treatments,algae [4]; after fifth application (34 DAT) (FIG. 9),rapidly and significantly increased
same,algal assemblage composition,algae [4]; during and after five applications (FIGS. 13 and 14),cyanobacteria (Cyanophyta) became dominant
same,"chlorophyll a concentration, highest measurements","algae [4]; five applications (1 ppm then 0.5 ppm copper), sampling to 69 DAT (FIG. 9), copper sulfate: many measurements, Composition E1: on one occasion",exceeding 100 μg/L
